In US7572799B2, “Pyrazolo[4,3-d]pyrimidines as Phosphodiesterase Inhibitors” (Pfizer Inc, priority 2003, dated 2009) one finds IC50 data, which are given here for 54 molecules.

In one experiment the target is PDE-5 (UniProt O76074). As to the kind of experiment: In vitro PDE inhibitory activity against PDE5 (batch method or scintillation proximity assay). Particulars: representative compounds. Format: biochemical, human. The source says:
The compounds of the invention are inhibitors of cyclic guanylate monophosphate (cGMP)-specific phosphodiesterase type 5 (PDE-5 inhibitors).
The required PDE enzymes can be isolated from a variety of sources, including human corpus cavernosum, human and rabbit platelets, human cardiac ventricle, human skeletal muscle and bovine retina, essentially by a modification of the method of Thompson, W J et al.; Biochemistry 18(23), 5228-5237, 1979, as described by Ballard S A et al.; J. Urology 159(6), 2164-2171, 1998. In particular, cGMP-specific PDE5 and cGMP-inhibited cAMP PDE3 can be obtained from human corpus cavernosum tissue, human platelets or rabbit platelets; cGMP-stimulated PDE2 was obtained from human corpus cavernosum; calcium/calmodulin (Ca/CAM)-dependent PDE1 from human cardiac ventricle; cAMP-specific PDE4 from human skeletal muscle; and photoreceptor PDE6 from bovine retina. Phosphodiesterases 7-11 can be generated from full length human recombinant clones transfected into SF9 cells.
Assays can be performed either using a modification of the “batch”method of Thompson W J and Appleman M M; Biochemistry 10(2), 311-316, 1971, essentially as described by Ballard S A et al.; J. Urology 159(6), 2164-2171, 1998, or using a scintillation proximity assay for the direct detection of [^3H]-labelled AMP/GMP using a modification of the protocol described by Amersham plc under product code TRKQ7090/7100. In summary, for the scintillation proximity assay the effect of PDE inhibitors was investigated by assaying a fixed amount of enzyme in the presence of varying inhibitor concentrations and low substrate, (cGMP or cAMP in a 3:1 ratio unlabelled to [^3H]-labeled at a concentration of ˜⅓ Km, or less) such that IC50≅Ki. The final assay volume was made up to 100 μl with assay buffer [20 mM Tris-HCl pH 7.4, 5 mM MgCl2, 1 mg/ml bovine serum albumin]. Reactions were initiated with enzyme, incubated for 30-60 min at 30° C. to give <30% substrate turnover and terminated with 50 μl yttrium silicate SPA beads (containing 3 mM of the respective unlabelled cyclic nucleotide for PDEs 9 and 11).
In general terms: Scintillation proximity formats need no separation of bound from free tracer.
As usually defined, the IC50 is the point on the concentration scale where inhibition reaches its midpoint. For `CCOCCn1nc(C(=O)O)c2nc(N(C)C(C)C)nc(NC3CCC3)c21` [Example 32], the IC50 came out at 100 nM.

`CCOCCn1nc(C(=O)O)c2nc(N(CC)CC)nc(N[C@@H]3CCOC3)c21` [Example 68] came in with an IC50 of 100 nM.

The same experiment, now with this note: representative compounds, read-out: IC50.
Take `CCOCCn1nc(C(=O)O)c2nc(N(C)C(C)C)nc(Nc3ccc(F)c(F)c3)c21` [Example 90]: the IC50 stood at 2.83 nM.

Regarding `CCOCCn1nc(C(=O)OC)c2nc(N3CCN[C@H](C)C3)nc(Nc3cc(C)ccn3)c21` [Example 3], the IC50 is 5.01 nM.

As for `CCOCCn1nc(C(=O)O)c2nc(N(C)CC)nc(Nc3cc(C)ccc3F)c21` [Example 101], the IC50 came to 8.45 nM.

In the case of `CCOCCn1nc(C(=O)O)c2nc(N(C)C)nc(Nc3ccc(C)cn3)c21` [Example 24], the IC50 was 53.9 nM.

As to `CCOCCn1nc(C(=O)O)c2nc(N(C)CC)nc(Nc3cc(C)c(C)cn3)c21` [Example 40], the IC50 came out at 0.167 nM.

In the case of `CCOCCn1nc(C(=O)O)c2nc(N(C)C(C)C)nc(Nc3cccc(C)n3)c21` [Example 99], the IC50 amounted to 2.45 nM.

Regarding `CCOCCn1nc(C(=O)OC)c2nc(N3C[C@@H]4C[C@H]3CN4)nc(Nc3cc(C)ccn3)c21` [Example 4], the IC50 is 2.62 nM.

As to `CCOCCn1nc(C(=O)O)c2nc(N[C@@H](C)CC)nc(Nc3cc(C)ccn3)c21` [Example 55], the IC50 is 2.6 nM.

Turning to `CCOCCn1nc(C(=O)O)c2nc(N(C)C3CCC3)nc(Nc3cc(C)ccn3)c21` [Example 51], the IC50 amounted to 2.57 nM.

Take `CCOCCn1nc(C(=O)O)c2nc(N(C)CCOC)nc(Nc3cc(C)ccn3)c21` [Example 17]: the IC50 is 2.93 nM.

On to `CCOCCn1nc(C(=O)O)c2nc(N(C)C(C)C)nc(Nc3ccccc3F)c21` [Example 104], for which the IC50 is 9.69 nM.

Consider `CCCN(C)c1nc(Nc2cc(C)ccn2)c2c(n1)c(C(=O)O)nn2CCOCC` [Example 15], for which the IC50 is 1.84 nM.

Take `CCOCCn1nc(C(=O)O)c2nc(N(C)C)nc(NC3CCOCC3)c21` [Example 82]: the IC50 was determined as 55.1 nM.

Consider `CCN(C)c1nc(Nc2ccc(F)c(C)c2)c2c(n1)c(C(=O)O)nn2CCOCC(F)(F)F` [Example 137], for which the IC50 turned out to be 0.068 nM.

For the molecule `CCOCCn1nc(C(=O)O)c2nc(N(C)C(C)CC)nc(Nc3cc(C)ccn3)c21` (stereo not drawn) [Example 50], the IC50 was 1.66 nM.

`CCOCCn1nc(C(=O)O)c2nc(N(C)C(C)C)nc(NC3CCOCC3)c21` [Example 83]: the 50% inhibitory concentration (IC50) was found to be 27.8 nM.

Consider `CCOCCn1nc(C(=O)O)c2nc(N(C)CC(C)C)nc(Nc3cc(C)ccn3)c21` [Example 16], for which the IC50 was 0.51 nM.

In the case of `CCOCCn1nc(C(=O)OCC)c2nc(N(C)C(C)C)nc(Nc3cc(C)ccn3)c21` [Example 9], the IC50 came to 0.075 nM.

With `CO[C@H](C)Cn1nc(C(=O)O)c2nc(N(C)C)nc(Nc3cc(C)ccn3)c21` [Example 64], the IC50 came out at 100 nM.

Regarding `CCOCCn1nc(C(=O)NS(C)(=O)=O)c2nc(N(C)C)nc(Nc3cc(C)ccn3)c21` [Example 114, N-[5-(Dimethylamino)-1-(2-ethoxyethyl)-7-(4-methylpyridin-2-ylamino)-1H-pyrazolo[4,3-d]pyrimidine-3-carbonyl]methanesulfonamide], the IC50 was 4.83 nM.

As to `CCOCCn1nc(-c2nc(=O)o[nH]2)c2nc(N(CC)CC)nc(Nc3ccc(F)c(C)c3)c21` [Example 78], the IC50 worked out at 0.24 nM.

As for `CCOCCn1nc(C(=O)NS(C)(=O)=O)c2nc(N(C)CC)nc(Nc3cccc(C)n3)c21` [Example 149], the IC50 was 14.4 nM.

For the molecule `CCOCCn1nc(C(=O)O)c2nc(N(CC)CC)nc(Nc3ccc(=O)n(C)c3)c21` [Example 125, 5-(Diethylamino)-1-(2-ethoxyethyl)-7-[(1-methyl-6-oxo-1,6-dihydropyridin-3-yl)amino]-1H-pyrazolo[4,3-]pyrimidine-3-carboxylic acid], the IC50 is 1.53 nM.

For `CCOCCn1nc(-c2nc(=O)o[nH]2)c2nc(N(C)CC)nc(Nc3ccc(F)c(C)c3)c21` [Example 77], the IC50 was found to be 0.162 nM.

With `CCOCCn1nc(C(=O)OC)c2nc(N(C)CC)nc(Nc3ccc(F)c(C)c3)c21` [Example 116, Methyl 1-(2-ethoxyethyl)-5-[ethyl(methyl)amino]-7-[(4-fluoro-3-methylphenyl)amino]-1H-pyrazolo[4,3-d]pyrimidine-3-carboxylate], the IC50 is 0.032 nM.

On to `CCOCCn1nc(C(=O)O)c2nc(N3CC[C@H](OC)C3)nc(Nc3cc(C)ccn3)c21` [Example 12], for which the IC50 stood at 14.7 nM.

`CCN(C)c1nc(Nc2cc(C)ccn2)c2c(n1)c(C(=O)O)nn2CCOC` [Example 119]: the 50% inhibitory concentration (IC50) was determined as 11.5 nM.

Take `CCNc1nc(Nc2cc(C)ccn2)c2c(n1)c(C(=O)O)nn2CCOC(C)C` [Example 63]: the IC50 is 4.58 nM.

Consider `CCN(C)c1nc(Nc2cc(C)ccn2)c2c(n1)c(C(=O)NS(C)(=O)=O)nn2CCOCCCF` [Example 175], for which the IC50 is 0.57 nM.

As for `CCOCCn1nc(C(=O)O)c2nc(N(C)C(C)C)nc(Nc3cc(C)cc(C)n3)c21` [Example 26], the IC50 is 1.64 nM.

As for `CCOCCn1nc(C(=O)O)c2nc(N(C)CC)nc(Nc3ccnc(OC)n3)c21` [Example 70], the IC50 amounted to 0.451 nM.

`Cc1ccnc(Nc2nc(N(C)C)nc3c(C(=O)O)nn(CCOC(C)C)c23)c1` [Example 61]: the IC50 was 13.1 nM.

Turning to `CCOCCn1nc(C(=O)O)c2nc(N(C)C)nc(Nc3cc(CC)ccn3)c21` [Example 37], the IC50 was 23.9 nM.

`CCOCCn1nc(C(=O)O)c2nc(N(CC)CCOC)nc(Nc3cc(C)ccn3)c21` [Example 52]: the IC50 was 3.4 nM.

Turning to `CCOCCn1nc(C(=O)O)c2nc(N(C)C(C)C)nc(Nc3cc(C)ccn3)c21` [Example 110, 1-(2-Ethoxyethyl)-5-(N-isopropyl-N-methylamino)-7-(4-methylpyridin-2-ylamino)-1H-pyrazolo[4,3-d]pyrimidine-3-carboxylic acid], the IC50 was determined as 0.564 nM.

`CCCN(CC1CC1)c1nc(Nc2cc(C)ccn2)c2c(n1)c(C(=O)O)nn2CCOCC` [Example 49]: the IC50 came to 4.92 nM.

Take `CCOCCn1nc(C(=O)O)c2nc(N(C)CC)nc(Nc3ccnc(C)n3)c21` [Example 73]: the IC50 was found to be 52.3 nM.

As to `COCCn1nc(C(=O)O)c2nc(N(C)C(C)C)nc(Nc3cc(C)ccn3)c21` [Example 22], the half-inhibitory concentration (IC50) is 7.12 nM.

As to `CCOCCn1nc(C(=O)O)c2nc(N(C)C(C)C)nc(Nc3cccc(OC)n3)c21` [Example 84], the IC50 was 2.37 nM.

Take `CCOCCn1nc(C(=O)O)c2nc(N(C)C(C)C)nc(Nc3ccccn3)c21` [Example 105]: the IC50 worked out at 0.741 nM.

Regarding `CCOCCn1nc(C(=O)O)c2nc(N(C)C)nc(Nc3cc(C)c(C)cn3)c21` [Example 41], the IC50 stood at 3.2 nM.

As for `CCOCCn1nc(C(=O)OC)c2nc(N(C)C)nc(Nc3cc(C)ccn3)c21` [Example 5], the IC50 was found to be 0.943 nM.

For `CCOCCn1nc(C(=O)O)c2nc(N3CCCC3C)nc(Nc3cc(C)ccn3)c21` (stereo not drawn) [Example 53], the IC50 was determined as 0.797 nM.

On to `CCN(C)c1nc(Nc2cc(C)ccn2)c2c(n1)c(C(=O)O)nn2CCOCC1CC1` [Example 109], for which the IC50 amounted to 9.7 nM.

`CCOCCn1nc(C(=O)OCCN(C)C)c2nc(N(C)C(C)C)nc(Nc3cc(C)ccn3)c21` [Example 147, 2-(Dimethylamino)ethyl 1-(2-ethoxyethyl)-5-[isopropyl(methyl)amino]-7-[(4-methylpyridin-2-yl)amino]-1H-pyrazolo[4,3-d]pyrimidine-3-carboxylate]: the IC50 amounted to 0.141 nM.

On to `CCN(CC)c1nc(Nc2cc(C)ccn2)c2c(n1)c(C(=O)NS(C)(=O)=O)nn2CCOCC(F)F` [Example 182], for which the half-inhibitory concentration (IC50) is 1.4 nM.

Regarding `CCN(C)c1nc(Nc2cc(C)ccn2)c2c(n1)c(C(=O)NS(C)(=O)=O)nn2CCOC` [Example 162], the IC50 came to 3.1 nM.

For the molecule `CCOCCn1nc(C(=O)O)c2nc(N(C)C3CCCC3)nc(Nc3cc(C)ccn3)c21` [Example 18], the IC50 is 11.3 nM.

Regarding `CCN(C)c1nc(Nc2cc(C)ccn2)c2c(n1)c(C(=O)O)nn2CCOCC(F)(F)F` [Example 127, 5-[Ethyl(methyl)amino]-7-[(4-methylpyridin-2-yl)amino]-1-[2-(2,2,2-trifluoroethoxy)ethyl]-1H-pyrazolo[4,3-d]pyrimidine-3-carboxylic acid], the IC50 was 6.34 nM.

On to `CCOCCn1nc(C(=O)O)c2nc(N3CC[C@@H](OC)C3)nc(Nc3cc(C)ccn3)c21` [Example 13], for which the half-inhibitory concentration (IC50) is 1.46 nM.

For `CCN(C)c1nc(Nc2cc(C)ccn2)c2c(n1)c(C(=O)NS(C)(=O)=O)nn2CCO` [Example 185, 5-[Ethyl(methyl)amino]-1-(2-hydroxyethyl)-7-[(4-methylpyridin-2-yl)amino]-N-(methylsulfonyl)-1H-pyrazolo[4,3-d]pyrimidine-3-carboxamide], the IC50 worked out at 11.5 nM.

As for `CCCOCCn1nc(C(=O)NS(C)(=O)=O)c2nc(N(C)CC)nc(Nc3cc(C)ccn3)c21` [Example 171], the concentration for half-maximal inhibition (IC50) was 1.21 nM.
